Assay results taken from patent US7897182B2, “Composition comprising bamboo extract and the compounds isolated therefrom showing treating and preventing activity for inflammatory and blood circulation disease” (Unigen, Inc., priority 2003, dated 2011).
≈ marks a conversion by molar mass, not a printed value. Each block holds one compound with its values, some of them ahead of it.

How the values were obtained:
[1] = tested on: iNOS gene expression; test: iNOS gene expression in LPS-treated RAW 264.7 cells (RT-PCR); assay type: cell-based, Murine; settings: for Inhibition of Gene expression (%) (iNOS): LPS, 24 hours
Protocol: To investigate the inhibiting effect on gene expression, the extract or compound of the present invention was treated to the cell and the RNA extracted therefrom was used in the RT-PCR to evaluate the quantitative gene expression. […] And RNA was extracted by conventional extraction method using Trizol reagent (Gibco BRL) to use in the following reverse transcription-polymerase chain reaction. RT-PCR was performed according to the RT reaction (25° C. 10 min, 48° C. 30 min, 95° C. 5 min, 4° C. 10 min; 1 cycle) and subsequent PCR (50° C. 2 min, 95° C. 10 min, 95° C. 15 sec, 60° C. 1 min, 40 cycles) method well known in the art. As an internal control, 18S ribosomal RNA was used.

[2] = tested on: LDL receptor defected mouse; test: Blood lipid in LDL defected mouse on high fat diet; assay type: in vivo; settings: lovastatin 4 mg/kg oral
Protocol: (§1) Eight-weeks old male LDL receptor defected mouse accumulated to high fat feed were divided into two dose administration groups and one high dosing group of which group consist of six mice per group, Injectable distilled water was used as a negative control group, lovastain well known to be as an atheriosclerosis treating agent was administrated in an amount of 4 mg/kg per body weight as a positive control group, Bamboo was administrated to two treatment group in an amount of 50 and 100 mg/kg per body weight respectively, and one high dosing treatment group in an amount of 500 mg/kg per body weight for 20 weeks by way of compulsory oral administration after weighing the body weight twice a day (See Table 6).
And then blood plasma was isolated by centrifugation at the speed of 11,000 g for 10 minutes and left alone at −70° C. before use. The value of blood lipid was determined by three categories i.e., TC (Total cholesterol), HDL-C (High-density lipoprotein cholesterol) and TG (Triglycerides) at KRIBB in Korea.

[3] = tested on: LDL receptor defected mouse; test: Arteriosclerosis lesion area (Oil red O, aortic valve) in LDL defected mouse; assay type: in vivo; settings: positive control, lovastatin 4 mg/kg
Protocol: During the experiment, the environment of the cage was maintained to the temperature of 23±2° C. and the relative humidity of […] under the artificial lamp for 12 hours, and less than five mice were bred in each mouse cage providing with free access to water (disinfected distilled water) and normal fatty feed (Harlan 2018S, Indianapolis USA).
as §1, with “6). […]” for “6).”
The calculation of lesion area was performed by staining the lesion formed at the position between 3rd cervical […] and aortic valve and photocopying and then the lesion area was calculated by using computer-assisted morphometry (TDI microscope Image Analyzer, USA) comparing with control group.

[4] = tested on: HUVEC; test: Cell toxicity test, modified MTT method, HUVEC; assay type: cell-based, Human
Protocol: The cell toxicity of tricin compound of Example 5 was tested using modified MTT method (J. Immunological Methods, 119, pp 203-210, 1989).
200 μl of HUVEC (2×10^5 cells/ml) on flat bottom 96-well microtiter plates (Nunc, Sweden) were treated with tricin prepared in various concentrations and cultured at 37° C. for 24 hours.
50 μl of MTT solution (1 mg/ml) was added to each well and incubated at 37° C. for 4 hours. And then supernatant was removed.
To detect formazan crystal, 100 μl of DMSO was also added to each well and the colorigenic analysis was performed at 550 nm using microplate reader (Power wave-XS, Bio-Tek, USA).

[5] = tested on: NO production; test: Inhibition of NO production in LPS-treated RAW 264.7 cells (Griess reagent); assay type: cell-based, Murine
Protocol: Murine macrophage cell line RAW 264.7 cell (ATCC, Rockville, Md., USA) were grown in DMEM (Gibco BRL Co., Ltd., USA), supplemented with 2.0 mM L-arginine, 100 μg/ml penicillin-streptomycin and 10% fetal bovine serum at 37° C. in 5% CO2 and 95% air condition in humidified incubator.
To test the inhibiting activity of bamboo extract and the compound isolated therefrom on nitric oxide (NO), which is one of inflammatory factors, the increase of NO was determined in the cells treated with extract or compound of the present invention.
200 μl of RAW 264.7 cells (1×10^6 cells/ml) were seeded onto each well of 96-well microtiter plate (Nunc, Sweden) and incubated for 3 hours in DMEM media containing 10% FBS. […]
And then 100 μl of cell supernatant of each well was transferred to new 96 well plate and 50 μl of Griess reagent (0.1% N-(1-naphtyl)ethylenediamine 2HCl, 1% sulfanilamide in 5% conc. H3PO4 in H2O) was added thereto followed by incubating for 10 mins at R.T. The absorbance was measured at 540 or 550 nm using ELISA reader (Power wave-XS, Bio-Tek, USA).

[6] = tested on: u-PA gene expression; test: u-PA mRNA expression in HUVEC (quantitative PCR); assay type: cell-based, Human; settings: for mRNA expression (fold), u-PA: HUVEC, control = 1
Protocol: (§2) RNA was isolated from HUVEC cell by Rneasy mini kit (cat#74103, Qiagen Co.) according to the manufacturer's instruction. And RT-PCT reaction was performed by using quantitative PCR method (SDS 7700, Applied biosystems Co., U.S.A.).
(§3) 5 μl of cDNA product obtained in the reverse transcription (RT) was aliquoted into each well of 96-well plate and then the mixture containing 5.6 mM MgCl2, 1×PCR buffer, 2 mM dNTP, 0.05% gelatin, 1 μM of a pair of each target gene primer or 0.16 μM of house keeping gene primer, 0.5 μM of target gene probe or 0.025 μM of housekeeping gene probe, 1.25 U of Taq polymerase was added thereto for polymerase chain reaction (PCR) (50° C. 2 min, 95° C. 10 min, 95° C. 15 sec, 60° C. 1 min, 40 cycles).
(§4) As the result, final cT value was read and calculated.

[7] = tested on: VEGF gene expression; test: VEGF mRNA expression in HUVEC (quantitative PCR); assay type: cell-based, Human; settings: for mRNA expression (fold), VEGF: HUVEC, control = 1
Protocol: as §2, §3, §4

[8] = tested on: eNOS gene expression; test: eNOS mRNA expression in HUVEC (quantitative PCR); assay type: cell-based, Human; settings: for mRNA expression (fold), eNOS: HUVEC, control = 1
Protocol: as §2, §3, §4

[9] = tested on: RAW 264.7 cells; test: Cell viability at the tricin concentrations of the NO test (Table 9)
[10] = Mus musculus, RAW264.7, read-out: NO inhibition rate (%)

- IC50 ([1]; Mus musculus, RAW264.7, calculated from the expression data, read-out: IC50 (μg/ml) on iNOS gene expression): 5.3 µg/mL (≈ 14.4 µM)
Structure (SMILES): COc1cc(/C=C/C(=O)CC(=O)/C=C/c2ccc(O)c(OC)c2)ccc1O [Curcumin, curcumin]
- Comparative iNOS expression (% of control, DMSO) ([1]; 0.032 μg/ml): 80.5 % of control
- Inhibition of Gene expression (%) (iNOS) ([1]; 0.032 μg/ml): 40%
- Comparative iNOS expression (% of control, DMSO) ([1]; 0.16 μg/ml): 75.7 % of control
- Inhibition of Gene expression (%) (iNOS) ([1]; 0.16 μg/ml): 40%
- Comparative iNOS expression (% of control, DMSO) ([1]; 0.8 μg/ml): 64.4 % of control
- Inhibition of Gene expression (%) (iNOS) ([1]; 0.8 μg/ml): 40%
- Comparative iNOS expression (% of control, DMSO) ([1]; 4 μg/ml): 49.9 % of control
- Inhibition of Gene expression (%) (iNOS) ([1]; 4 μg/ml): 90%
- Inhibition of Gene expression (%) (iNOS) ([1]; 12.5 μg/ml): 90%
- Comparative iNOS expression (% of control, DMSO) ([1]; 20 μg/ml): 1.3 % of control
- concentration at which iNOS gene expression is inhibited by 90% ([1]; real time-gene expression analysis): 4 µg/mL

Structure (SMILES): CC[C@H](C)C(=O)O[C@H]1C[C@@H](C)C=C2C=C[C@H](C)[C@H](CC[C@@H]3C[C@@H](O)CC(=O)O3)[C@H]21 [Lovastatin, lovastatin]
- HDL-C [2]: 25.00 ± 7.07
- LDL-C [2]: 3485.00 ± 304.06
- TC [2]: 3750.00 ± 42.43
- TG [2]: 300.00 ± 14.14
- inhibition of the formation of arteriosclerosis compared with control group [3]: about 47%

Structure (SMILES): O=C(O)/C=C/c1ccc(O)cc1 [p-coumaric acid]
- cellular toxicity, in words [4]: no cellular toxicity

Structure (SMILES): COc1cc(-c2cc(=O)c3c(O)cc(O)cc3o2)cc(OC)c1O [tricin]
- NO inhibition, in words ([5]; 25, 12.5 and 6.5 μg/ml): strong NO inhibition rate
- inhibition at 1.625 µg/mL [5, 10]: 25.9 ± 0.006%
- inhibition at 3.25 µg/mL [5, 10]: 38.1 ± 0.005%
- inhibition at 6.5 µg/mL [5, 10]: 52 ± 0.015%
- inhibition at 25 µg/mL [5, 10]: 74.6 ± 0.009%
- inhibition at 50 µg/mL [5, 10]: 49.7 ± 0.007%
- inhibition at 12.5 µg/mL ([5]; Mus musculus, RAW264.7, tricin 12.5 μg/ml, read-out: NO inhibition rate (%)): 71.2 ± 0.003%
- expression of u-PA gene in HUVEC, in words [6]: increased
- mRNA expression (fold), u-PA ([6]; tricin 0.5 μg/ml): 1.619 fold
- mRNA expression (fold), u-PA ([6]; tricin 1.0 μg/ml): 1.103 fold
- mRNA expression (fold), u-PA ([6]; tricin 5.0 μg/ml): 2.962 fold
- expression of VEGF in HUVEC, in words [7]: increased
- mRNA expression (fold), VEGF ([7]; tricin 0.5 μg/ml): 2.046 fold
- mRNA expression (fold), VEGF ([7]; tricin 1.0 μg/ml): 1.469 fold
- mRNA expression (fold), VEGF ([7]; tricin 5.0 μg/ml): 1.545 fold
- expression of eNOS in HUVEC, in words [8]: increased
- mRNA expression (fold), eNOS ([8]; tricin 0.5 μg/ml): 3.024 fold
- mRNA expression (fold), eNOS ([8]; tricin 1.0 μg/ml): 4.711 fold
- mRNA expression (fold), eNOS ([8]; tricin 5.0 μg/ml): 0.452 fold
- cellular toxicity ([4]; HUVEC, 5 μg/ml, 24 hours, MTT): 51%
- toxicity at the active concentrations, in words ([9]; 25, 12.5 and 6.5 μg/ml): no toxicity
- Cell viability (%) ([9]; tricin 1.625 μg/ml): 126%
- Cell viability (%) ([9]; tricin 3.25 μg/ml): 99%
- Cell viability (%) ([9]; tricin 6.5 μg/ml): 96%
- Cell viability (%) ([9]; tricin 12.5 μg/ml): 92%
- Cell viability (%) ([9]; tricin 25 μg/ml): 80%
- Cell viability (%) ([9]; tricin 50 μg/ml): 49%
